The text below walks through data of EPA's ToxRefDB 2.

One may read the LOAEL as the lowest dose or exposure tested at which an adverse effect was seen. For orientation: NOAEL means the highest tested level that showed no adverse finding.

Series [1] relates to rabbit. The following applies: Prenatal developmental toxicity study, new zealand white, Oral, Gavage/Intubation, dose end: 18 GD.
The subject of series [2] is mouse. The following applies: Carcinogenicity, cd1, Oral, Feed, dose end: 98 week, group: systemic.
Series [3] has as its system dog. The following applies: Subchronic oral toxicity in nonrodent, beagle, Feed, dose end: 90 day, group: systemic.
For series [4], the system named is mouse. The following applies: Subchronic oral toxicity in rodents, other, Feed, dose end: 91 day, group: systemic.
Series [5] deals with rat. The following applies: Carcinogenicity, wistar, Oral, Feed, dose end: 24 month, group: systemic.
In series [6] the test system is rat. The following applies: Prenatal developmental toxicity study, wistar, Oral, Gavage/Intubation, dose end: 19 GD.
Series [7] relates to rabbit. The following applies: Prenatal developmental toxicity study, himalayan, Oral, Gavage/Intubation, dose end: 28 GD.
Series [8] deals with dog. The following applies: Chronic toxicity, beagle, Oral, Feed, dose end: 364 day, group: systemic.
Series [9] relates to rabbit. The following applies: Prenatal developmental toxicity study, new zealand white, Oral, Gavage/Intubation, dose end: 28 GD.
For series [10], the system named is rat. The following applies: Multigenerational reproductive toxicity study, wistar, Oral, Feed, dose end: 2 generation.
Series [11] deals with rat. The following applies: Chronic toxicity; wistar; Oral; Feed; dose end: 364 day; group: systemic; systemic / pathology gross / eye / opacity + systemic / pathology microscopic / eye / corneal pannus + systemic / pathology microscopic / ….
The test system of series [12] is mouse. The following applies: Carcinogenicity, other, Oral, Feed, dose end: 78 week, group: systemic.
The test system of series [13] is rat. The following applies: Subchronic oral toxicity in rodents, wistar, Feed, dose end: 13 week, group: systemic.
Series [14] has as its system mouse. The following applies: Subchronic oral toxicity in rodents, b6c3f1, Feed, dose end: 14 week, group: systemic.
Series [15] relates to mouse. The following applies: Carcinogenicity; b6c3f1; Oral; Feed; dose end: 2 year; group: systemic; systemic / pathology microscopic / liver / hypertrophy.
For series [16], the system named is rat. The following applies: Combined chronic toxicity/carcinogenicity, fischer, Oral, Feed, dose end: 2 year, group: systemic.
For series [17], the system named is rat. The following applies: Subchronic oral toxicity in rodents, fischer, Feed, dose end: 14 week, group: systemic.
In series [18] the test system is rat. The following applies: Subchronic oral toxicity in rodents, sprague dawley, Feed, dose end: 90 day, group: systemic, systemic / in life observation / clinical signs / soft stools + systemic / in life observation / clinical signs / defecation (diarrhea).
[19] abbreviates: group: developmental, developmental / developmental malformation / brain / misshapen cerebrum + developmental / developmental malformation / eye / malpositioned….
The mark [20] stands for this setting: group: maternal, systemic / in life observation / body weight / body weight gain.
The mark [21] stands for this setting: systemic / pathology microscopic / liver / adenoma + systemic / pathology microscopic / liver / adenoma/carcinoma combined.
Setting [22] is: systemic / pathology microscopic / liver / hypertrophy.
Setting [23] is: systemic / in life observation / body weight / body weight gain + systemic / in life observation / food consumption / food efficiency + ….
[24] abbreviates: systemic / urinalysis / ketones / ketones.
The mark [25] stands for this setting: systemic / in life observation / food consumption / food consumption + systemic / organ weight / testes / absolute + systemic / organ weight….
Where [26] appears, read: systemic / in life observation / mortality / mortality + systemic / pathology gross / lymph node / enlarged + systemic / pathology gross / ….
The mark [27] stands for this setting: group: developmental, developmental / developmental malformation / bone / full supernumerary + developmental / developmental malformation / bone / misshapen + ….
The mark [28] stands for this setting: group: developmental, developmental / developmental malformation / bone / [other] + developmental / developmental malformation / bone / incomplete ossification + ….
[29] abbreviates: group: maternal, reproductive / reproductive performance / aborted / aborted + systemic / in life observation / body weight / body weight gain + systemic / ….
[30] abbreviates: systemic / in life observation / food consumption / food efficiency + systemic / urinalysis / ketones / ketones + systemic / urinalysis / ph….
The mark [31] stands for this setting: group: developmental, developmental / developmental malformation / bone / ossification sites + developmental / developmental malformation / bone / supernumerary.
[32] abbreviates: group: developmental, developmental / developmental malformation / bone / ossification sites + developmental / developmental malformation / bone / supernumerary….
Where [33] appears, read: group: maternal, systemic / clinical chemistry / tyrosine / tyrosine.
[34] abbreviates: group: offspring, systemic / organ weight / spleen / absolute + systemic / organ weight / spleen / relative to body weight.
Setting [35] is: group: parental, systemic / organ weight / kidney / absolute + systemic / organ weight / kidney / relative to body weight + systemic / organ weight / liver….
Setting [36] is: group: parental, systemic / organ weight / thyroid gland / absolute.
Where [37] appears, read: systemic / in life observation / body weight / body weight + systemic / in life observation / body weight / body weight gain.
Setting [38] is: systemic / in life observation / body weight / body weight + systemic / in life observation / body weight / body weight gain + systemic / ….
[39] abbreviates: systemic / pathology gross / thyroid gland / altered colloid.
[40] abbreviates: systemic / hematology / platelet / platelet.
The mark [41] stands for this setting: systemic / in life observation / body weight / body weight + systemic / pathology microscopic / liver / hypertrophy.
Where [42] appears, read: systemic / clinical chemistry / alkaline phosphatase (alp/alk) / alkaline phosphatase (alp/alk).

Where only a bound is given, the exact number is not on record here.

`CC(Oc1cccc(Cl)c1)C(=O)O` (configuration not stated) [Cloprop]: the results for the LEL in series [1] (setting [19]), in series [1] (setting [20]) and in [2] (setting [21]) were 200 mg/kg/day, 200 mg/kg/day and 98 mg/kg/day, respectively. Besides, the LOAEL came out at 200 mg/kg/day in [1] (setting [19]), 200 mg/kg/day in series [1] (setting [20]) and 402 mg/kg/day in [2] (setting [22]). Moreover, the NEL was 100 mg/kg/day in [1] (setting [19]), 100 mg/kg/day in series [1] (setting [20]) and less than 98 mg/kg/day in series [2] (setting [21]). Further, the NOAEL in [1] (setting [19]) was 100 mg/kg/day; in [1] (setting [20]), 100 mg/kg/day; in series [2] (systemic / pathology microscopic / liver / hypertrophy + systemic / pathology microscopic / liver / adenoma + systemic / pathology …), 98 mg/kg/day.
As to `Cc1c(C(=O)c2c[nH]n(C)c2=O)ccc(S(C)(=O)=O)c1C1=NOCC1` [Topramezone], the LOAEL in [3] (setting [23]) is 1510 mg/kg/day; in [4] (setting [25]) it was greater than 2290 mg/kg/day; in series [5] (systemic / pathology microscopic / thyroid gland / hyperplasia + systemic / pathology microscopic / thyroid gland / hypertrophy + systemic…), 3.6 mg/kg/day; in [6] (setting [27]), 100 mg/kg/day; in series [6] (setting [20]) it was 100 mg/kg/day; in [7] (setting [28]), 50 mg/kg/day. Moreover, the LOAEL in series [7] (setting [29]) was determined as 450 mg/kg/day; in [8] (systemic / pathology microscopic / thyroid gland / hyperplasia), 15.3 mg/kg/day; in series [9] (setting [31]), 5 mg/kg/day; in series [9] (setting [33]), 0.5 mg/kg/day; in series [10] (group: offspring, developmental / developmental landmark / preputial separation / preputial separation + systemic / in life observation / body weight / litter…) it was 4.2 mg/kg/day; in series [10] (setting [35]), 4.2 mg/kg/day. Further, the LOAEL came out at 3.9 mg/kg/day in [11], 19 mg/kg/day in [12] (setting [37]) and 2.1 mg/kg/day in [13] (systemic / pathology microscopic / pancreas / degeneration). Besides, the NOAEL was 535 mg/kg/day in series [3] (setting [23]); no less than 2290 mg/kg/day in series [4] (setting [25]); 0.4 mg/kg/day in series [5] (setting [26]); less than 100 mg/kg/day in series [6] (setting [27]); less than 100 mg/kg/day in series [6] (setting [20]); less than 50 mg/kg/day in [7] (setting [28]). The NOAEL in [7] (setting [29]) is 150 mg/kg/day; in series [8] (systemic / pathology microscopic / thyroid gland / hyperplasia + systemic / in life observation / body weight / body weight + systemic / in …), 2.9 mg/kg/day; in series [9] (setting [32]), 0.5 mg/kg/day; in series [9] (setting [33]), less than 0.5 mg/kg/day; in series [10] (group: offspring, developmental / developmental landmark / preputial separation / preputial separation + developmental / offspring survival late / viability …) it was 0.4 mg/kg/day; in series [10] (setting [35]), 0.4 mg/kg/day. In addition, the NOAEL is 0.4 mg/kg/day in series [11], less than 19 mg/kg/day in [12] (setting [37]) and 1.1 mg/kg/day in [13] (systemic / pathology microscopic / pancreas / degeneration + systemic / clinical chemistry / alkaline phosphatase (alp/alk) / alkaline …). Moreover, the LEL in series [3] (setting [24]) was 182 mg/kg/day; in series [4] (systemic / organ weight / liver / relative to body weight), 406 mg/kg/day; in series [5] (setting [26]) it was 0.4 mg/kg/day; in series [6] (setting [27]), 100 mg/kg/day; in series [6] (setting [20]), 100 mg/kg/day; in [7] (setting [28]), 50 mg/kg/day. The LEL was 450 mg/kg/day in series [7] (setting [29]); 2.9 mg/kg/day in [8] (setting [30]); 5 mg/kg/day in [9] (setting [31]); 0.5 mg/kg/day in [9] (setting [33]); 0.4 mg/kg/day in series [10] (setting [34]); 0.5 mg/kg/day in series [10] (setting [36]). For the same compound, the LEL worked out at 3.9 mg/kg/day in series [11], 19 mg/kg/day in series [12] (setting [38]) and 1.1 mg/kg/day in [13] (setting [39]). Besides, the NEL in series [3] (setting [24]) is less than 182 mg/kg/day; in [4] (systemic / organ weight / liver / relative to body weight + systemic / in life observation / body weight / body weight gain + systemic / in …), 51 mg/kg/day; in [5] (setting [26]), less than 0.4 mg/kg/day; in series [6] (setting [27]), less than 100 mg/kg/day; in series [6] (setting [20]), less than 100 mg/kg/day; in series [7] (setting [28]), less than 50 mg/kg/day. In addition, the NEL in [7] (setting [29]) was 150 mg/kg/day; in series [8] (setting [30]), less than 2.9 mg/kg/day; in [9] (setting [32]), 0.5 mg/kg/day; in [9] (setting [33]), less than 0.5 mg/kg/day; in series [10] (setting [34]), less than 0.4 mg/kg/day; in series [10] (setting [36]) it was less than 0.5 mg/kg/day. Moreover, the figures for the NEL in series [11], in [12] (setting [38]) and in series [13] (setting [39]) were 0.4 mg/kg/day, less than 19 mg/kg/day and less than 1.1 mg/kg/day, respectively.
In the case of `O=S(=O)(c1ccc(Cl)cc1)c1ccc(Cl)cc1` [4,4'-Dichlorodiphenyl sulfone], the LEL was 3.5 mg/kg/day in [14] (setting [40]), 3.8 mg/kg/day in series [15], 1.5 mg/kg/day in series [16] (systemic / in life observation / body weight / body weight) and 2 mg/kg/day in series [17] (setting [42]). Besides, the NEL in [14] (setting [40]) is less than 3.5 mg/kg/day; in [15], less than 3.8 mg/kg/day; in [16] (setting [41]), 0.5 mg/kg/day; in series [17] (setting [42]), less than 2 mg/kg/day. The lowest-observed-adverse-effect level (LOAEL) in series [14] (setting [38]) was 50 mg/kg/day; in series [15] it was 3.8 mg/kg/day; in series [16] (setting [22]), 5 mg/kg/day; in series [17] (systemic / organ weight / liver / absolute + systemic / organ weight / liver / relative to body weight + systemic / pathology microscopic / …) it was 6 mg/kg/day. The NOAEL in series [14] (setting [38]) is 15 mg/kg/day; in series [15], less than 3.8 mg/kg/day; in series [16] (setting [41]) it was 1.5 mg/kg/day; in [17] (systemic / organ weight / liver / absolute + systemic / organ weight / liver / relative to body weight + systemic / clinical chemistry / …), 2 mg/kg/day.
Regarding `CCCCCC[C@H]1C(=O)O[C@H](C)[C@H](NC(=O)c2cccc(NC=O)c2O)C(=O)O[C@@H](C)[C@@H]1OC(=O)CC(C)C` [Antimycin A], in series [18], the LEL amounted to 0.5 mg/kg/day, the lowest observed adverse effect level (LOAEL) worked out at 0.5 mg/kg/day, the NEL was less than 0.5 mg/kg/day and the NOAEL was less than 0.5 mg/kg/day.
